Measurements: US7091185B2, “Periodic antimicrobial peptides” (Dow Global Technologies Inc., priority 2003, dated 2006)

Key:
P. aeruginosa ATCC 15442 = test: HMARQ biocidal kill activity; format: cell-based; conditions: P. aeruginosa ATCC 15442 (gram−)
Method: (§1) Biocide efficacy protocols were improved by reducing sample size, organizing the test material into an array format, implementing most probable number (MPN) quantitation and using multi-channel liquid handling equipment. We call the new method “high-throughput microanalysis and rapid quantitation” or “HMARQ.” HMARQ is directly applicable to current industrial efficacy tests such as multi-cycle preservation challenge or time course disinfection tests.
(§2) HMARQ is performed in a high throughput plate, such as 96-well microtiter plates. Typical sample volumes have been reduced down to 200 to 300 μL, but can be reduced further if desired. In these samples, no more than 10% of the total volume will be composed of the biocide and organism solution, and all non-matrix additions are normalized for all samples.
(§3) The sample matrix is first inoculated with the desired concentration of microorganisms. Inoculated sample matrix is then added to the 96-well assay block containing the biocide(s) under study. Each sample block contains biocide treated samples and untreated control samples (lacking biocide). Once the samples are prepared, the entire block of samples is mixed by vortexing until each sample is homogenous. In general, the study starts once mixing is complete, and samples are removed as required for the analysis. When Kill Time testing (rate of biocide activity) is performed, the microorganisms are added after biocide addition to the samples, allowing for rapid mixing and analysis.
(§4) Bacterial concentration (CFU/mL) is determined using the most probable number method (MPN). The contaminated solution is serially diluted until the “no growth” endpoint is reached. The endpoint represents the MPN and is expressed in units of the bacterial concentration. A serial 1:10 dilution will yield a bacterial concentration resolution of 1 log and the log reduction is determined by comparing the concentration of organisms in a treated sample to the concentration of organisms in untreated samples. For example, if a sample requires four 1:10 dilutions before bacterial growth is lost then the MPN for bacterial concentration in the sample is less than or equal to 1×10^4 CFU/mL (1E4). […] This method of enumeration is generally applicable to all non-filamentous microorganisms.
(§5) Media included Tryptic Soy Broth (TSB) for bacteria and Sabouraud Dextrose Broth (SDB) for fungi. These are available commercially and prepared according to the manufacturers instructions. Indicator medium was TSB/R for bacteria and SDB/R for fungi. These were made by addition of 50 μM filter sterilized Resazurin to the sterilized and cooled medium. Tryptic Soy agar plates (TSA) and SDA slants were used to provide inoculant for bacterial and fungal cultures. The indicator dye appeared pink or white when bacterial growth was present.
(§6) Using the HMARQ test described above, periodic peptides were generated and tested for Kill Activity. In this experiment, a broader range of peptidezs were tested for activity. Units are expressed as ppm (μg/mL) needed for 3.5 log kill at 15 min or 24 hour and the results are shown below.

Staph. aureus ATCC 6538 = test: HMARQ biocidal kill activity; format: cell-based; conditions: Staph. aureus ATCC 6538 (gram+)
Method: as §1, §2, §3, §4, §5, §6

## FKA FKA FKA FKA FKA FKA FKA FKA FKA FKA FKA FKA FKA FKA FKA FKA FKA (FKAFKAFKAFKAFKAFKAFKAFKAFKAFKAFKAFKAFKAFKAFKAFKAFKA; Periodic Peptide) [FKA(17)]
P. aeruginosa ATCC 15442
  ppm needed for 3.5 log kill at 15 min: 16 ppm
  ppm needed for 3.5 log kill at 24 hr: 16 ppm
Staph. aureus ATCC 6538
  ppm needed for 3.5 log kill at 15 min: 4 ppm
  ppm needed for 3.5 log kill at 24 hr: 8 ppm

## KFK KFK KFK KFK KFK KFK KFK KFK KFK KFK KFK KFK (KFKKFKKFKKFKKFKKFKKFKKFKKFKKFKKFKKFK; Periodic Peptide) [KFK(12)]
P. aeruginosa ATCC 15442
  ppm needed for 3.5 log kill at 15 min: 4 ppm
  ppm needed for 3.5 log kill at 24 hr: 8 ppm
Staph. aureus ATCC 6538
  ppm needed for 3.5 log kill at 15 min: >500 ppm
  ppm needed for 3.5 log kill at 24 hr: 250 ppm

## KFK KFK KFK KFK KFK KFK KFK KFK KFK KFK KFK KFK KFK KFK KFK KFK (KFKKFKKFKKFKKFKKFKKFKKFKKFKKFKKFKKFKKFKKFKKFKKFK; Periodic Peptide) [KFK(16)]
P. aeruginosa ATCC 15442
  ppm needed for 3.5 log kill at 15 min: 16 ppm
  ppm needed for 3.5 log kill at 24 hr: 31 ppm
Staph. aureus ATCC 6538
  ppm needed for 3.5 log kill at 15 min: >500 ppm
  ppm needed for 3.5 log kill at 24 hr: 16 ppm

## KGK KGK KGK KGK KGK KGK KGK KGK KGK KGK KGK (KGKKGKKGKKGKKGKKGKKGKKGKKGKKGKKGK; Periodic Peptide) [KGK(11)]
P. aeruginosa ATCC 15442
  ppm needed for 3.5 log kill at 15 min: 8 ppm
  ppm needed for 3.5 log kill at 24 hr: 8 ppm
Staph. aureus ATCC 6538
  ppm needed for 3.5 log kill at 15 min: >500 ppm
  ppm needed for 3.5 log kill at 24 hr: 8 ppm

## KGK KGK KGK KGK KGK KGK KGK KGK KGK KGK KGK KGK KGK KGK KGK (KGKKGKKGKKGKKGKKGKKGKKGKKGKKGKKGKKGKKGKKGKKGK; Periodic Peptide) [KGK(15)]
P. aeruginosa ATCC 15442
  ppm needed for 3.5 log kill at 15 min: 4 ppm
  ppm needed for 3.5 log kill at 24 hr: 16 ppm
Staph. aureus ATCC 6538
  ppm needed for 3.5 log kill at 15 min: 125 ppm
  ppm needed for 3.5 log kill at 24 hr: 62 ppm

## KTK KTK KTK KTK KTK KTK KTK (KTKKTKKTKKTKKTKKTKKTK; Periodic Peptide) [KTK(7)]
P. aeruginosa ATCC 15442
  ppm needed for 3.5 log kill at 15 min: 31 ppm
  ppm needed for 3.5 log kill at 24 hr: 31 ppm
Staph. aureus ATCC 6538
  ppm needed for 3.5 log kill at 15 min: 250 ppm
  ppm needed for 3.5 log kill at 24 hr: 8 ppm

## LK LK LK LK LK (LKLKLKLKLK; Periodic Peptide) [LK(5)]
P. aeruginosa ATCC 15442
  ppm needed for 3.5 log kill at 15 min: 62 ppm
  ppm needed for 3.5 log kill at 24 hr: 62 ppm
Staph. aureus ATCC 6538
  ppm needed for 3.5 log kill at 15 min: >500 ppm
  ppm needed for 3.5 log kill at 24 hr: 31 ppm

## LK LK LK LK LK LK LK LK LK LK LK LK LK LK LK LK LK LK (LKLKLKLKLKLKLKLKLKLKLKLKLKLKLKLKLKLK; Periodic Peptide) [LK(18)]
P. aeruginosa ATCC 15442
  ppm needed for 3.5 log kill at 15 min: 16 ppm
  ppm needed for 3.5 log kill at 24 hr: 31 ppm
Staph. aureus ATCC 6538
  ppm needed for 3.5 log kill at 15 min: 8 ppm
  ppm needed for 3.5 log kill at 24 hr: 16 ppm

## LK LK LK LK LK LK LK LK LK LK LK LK LK LK LK LK LK LK LK LK LK LK LK LK (LKLKLKLKLKLKLKLKLKLKLKLKLKLKLKLKLKLKLKLKLKLKLKLK; Periodic Peptide) [LK(24)]
P. aeruginosa ATCC 15442
  ppm needed for 3.5 log kill at 15 min: 16 ppm
  ppm needed for 3.5 log kill at 24 hr: 63 ppm
Staph. aureus ATCC 6538
  ppm needed for 3.5 log kill at 15 min: >500 ppm
  ppm needed for 3.5 log kill at 24 hr: >500 ppm

B1: KFAK KFAK KFAK KFAK KFAK KFAK KFAK KFAK KFAK KFAK KFAK KFAK KFAK KFAK KFAK KFAK KFAK (peptide)
chain: KFAKKFAKKFAKKFAKKFAKKFAKKFAKKFAKKFAKKFAKKFAKKFAKKFAKKFAKKFAKKFAKKFAK
modifications: Periodic Peptide
P. aeruginosa ATCC 15442
  ppm needed for 3.5 log kill at 15 min: 16 ppm
  ppm needed for 3.5 log kill at 24 hr: 250 ppm
Staph. aureus ATCC 6538
  ppm needed for 3.5 log kill at 15 min: 250 ppm
  ppm needed for 3.5 log kill at 24 hr: 500 ppm
